Earlier results in US20230210762A1, “TRANSDERMAL DRUG DELIVERY DEVICES HAVING PSILOCYBIN, LYSERGIC ACID DI[…] 3,4-METHYLENEDIOXYMETHA[…] MICROPROTRUSIONS” (Emergex USA Corporation, priority 2020, published 2023).
Read-outs that look alike come from different tables or passages of the source.

Key:
[1] = not given; remark: listed apart in the source
[2] = not given; remark: listed apart in the source
[3] = psilocybin administered orally to rats

Row | Compound | solubility in water | half-life ([1]; administered intravenously) [h] | half-life ([1]; administered orally) [h] | bioavailability ([1]; psilocybin ingested orally) | ingested psilocybin absorbed through the stomach and intestine ([2]; oral, studies in animals) | detected in urine, time after ingestion ([2]; urine) [days] | time within which most of the drug is eliminated ([2]; via urine, bile and feces) [h] | absorbed psilocybin excreted in the bile and feces ([2]; within 24 hours) | absorbed psilocybin excreted into the urine ([2]; within 24 hours) | time until psilocin is detectable in plasma ([1]; after administration of the parent compound psilocybin) [min] | time to maximum plasma levels [3] | total volume of psilocin absorbed from the digestive tract [3]
1 | CN(C)CCc1c[nH]c2cccc(OP(=O)(O)O)c12 [psilocybin, 3-[2-(demethylamino)ethyl-1H-indol-4-yl] dihydrogen phosphate] | soluble | 1.24 ± 0.327 | 2.72 ± 1.07 | about 50% | about 50% | 7 | ≤ 8 | 15-20% | about 65% | – | – | –
2 | CN(C)CCc1c[nH]c2cccc(O)c12 [psilocin] | – | – | – | – | – | – | – | – | – | ≤ 20 | approximately 90 minutes | approximately 50%
